BindingDB's records for PubMed 2968449 (Squibb Institute For Medical Research, 1988)
Where “and” joins values, the source holds several entries; their conditions need not be identical. Identical values can stand only once.

Target: T1, Thromboxane A2 receptor (Homo sapiens, UniProt P21731)
T1 sequence (P21731 whole entry): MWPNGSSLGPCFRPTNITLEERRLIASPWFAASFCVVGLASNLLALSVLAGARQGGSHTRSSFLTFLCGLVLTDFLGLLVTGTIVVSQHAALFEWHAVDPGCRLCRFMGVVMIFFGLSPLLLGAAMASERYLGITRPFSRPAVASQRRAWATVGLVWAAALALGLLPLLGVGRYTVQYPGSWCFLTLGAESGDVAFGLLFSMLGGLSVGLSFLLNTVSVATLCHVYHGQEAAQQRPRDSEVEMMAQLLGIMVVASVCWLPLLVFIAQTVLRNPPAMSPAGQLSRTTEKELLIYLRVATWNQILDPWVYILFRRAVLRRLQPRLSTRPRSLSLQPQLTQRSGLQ

| Compound | Ki |
| --- | --- |
| CCCCCCC(=O)NCC(=O)NCC1C2CCC(O2)C1CC=CCCCC(=O)O (centres undefined) [CAS_119571] | 49.6 nM and 28.3 nM |
| CCCCCC(O)C=CC1C2COC(C2)C1CC=CCCCC(=O)O (centres undefined) [NSC_114865] | 7.1 nM and 4.4 nM |
| CC(c1ccccc1)C(O)C=CC1C2CCC(O2)C1CC=CCCCC(=O)O (centres undefined) [NSC_3036123] | 72.7 nM and 31.8 nM |
| CCCCC[C@H](O)/C=C/C1[C@@H](C/C=C\CCCC(=O)O)[C@H]2CO[C@@H]1C2 (some centres undefined) [U46619] | 18.7 nM and 3.6 nM |
